Organism: Rattus norvegicus
Experiment: DrugMatrix - Regimen: Daily Repeat
Type: toxicity, organism-based, Sprague-Dawley
Parameters: regimen Daily Repeat, gender Male, age 6-8 weeks
Details: in vivo, sc, route subcutaneous, […]; for ABSOLUTE BASOPHIL / ABSOLUTE EOSINOPHIL / ABSOLUTE LYMPHOCYTE / ABSOLUTE MONOCYTE / ABSOLUTE SEGMENTED NEUTROPHIL / BASOPHIL / EOSINOPHIL / ERYTHROCYTE COUNT / HEMATOCRIT / HEMOGLOBIN / LEUKOCYTE COUNT / LYMPHOCYTE / MEAN CORPUSCULAR HEMOGLOBIN / MEAN CORPUSCULAR HEMOGLOBIN CONCENTRATION / MEAN CORPUSCULAR VOLUME / MONOCYTE / NEUTROPHIL / NUCLEATED RED BLOOD CELLS / PLATELET COUNT: tissue Blood; for ALANINE AMINOTRANSFERASE / ALBUMIN / ALKALINE PHOSPHATASE / ASPARTATE AMINOTRANSFERASE / BLOOD UREA NITROGEN / CARBON DIOXIDE / CHLORIDE / CHOLESTEROL / CREATINE PHOSPHOKINASE / CREATININE / GLUCOSE / LACTATE DEHYDROGENASE / LIPASE / PHOSPHORUS / POTASSIUM / SODIUM / TOTAL BILIRUBIN / TOTAL PROTEIN / URIC ACID: tissue Plasma
[1] = 0 mg/kg, 72 h, dose level Control, time 3 day
[2] = 0 mg/kg, 120 h, dose level Control, time 5 day
[3] = 29 mg/kg, 72 h, dose level Low, time 3 day

Nc1nc2c(ncn2CCC(CO)CO)c(=O)[nH]1 [PENCICLOVIR]
ABSOLUTE BASOPHIL [1]: 0 CELLS/uL | ABSOLUTE EOSINOPHIL [1]: 42.67 CELLS/uL | ABSOLUTE LYMPHOCYTE [1]: 10202 CELLS/uL | ABSOLUTE MONOCYTE [1]: 261.5 CELLS/uL | ABSOLUTE SEGMENTED NEUTROPHIL [1]: 2193.83 CELLS/uL | BASOPHIL [1]: 0% | EOSINOPHIL [1]: 0.33% | ERYTHROCYTE COUNT [1]: 5.63 x10E6/uL | HEMATOCRIT [1]: 35.35% | HEMOGLOBIN [1]: 13.07 G/DL | LEUKOCYTE COUNT [1]: 12.7 x10E3/uL | LYMPHOCYTE [1]: 81.17% | MEAN CORPUSCULAR HEMOGLOBIN [1]: 23.23 pg | MEAN CORPUSCULAR HEMOGLOBIN CONCENTRATION [1]: 36.97 G/DL | MEAN CORPUSCULAR VOLUME [1]: 62.82 fL | MONOCYTE [1]: 2% | NEUTROPHIL [1]: 16.5% | NUCLEATED RED BLOOD CELLS [1]: 0 /100WBC | PLATELET COUNT [1]: 1180.33 x10E3/uL | ALANINE AMINOTRANSFERASE [1]: 48.67 u/L | ALBUMIN [1]: 4.08 G/DL | ALKALINE PHOSPHATASE [1]: 360.67 u/L | ASPARTATE AMINOTRANSFERASE [1]: 85.5 u/L | BLOOD UREA NITROGEN [1]: 17.83 mg/dL | CARBON DIOXIDE [1]: 26.17 mmol/L | CHLORIDE [1]: 101.83 MEQ/L | CHOLESTEROL [1]: 71 mg/dL | CREATINE PHOSPHOKINASE [1]: 515.17 u/L | CREATININE [1]: 0.22 mg/dL | GLUCOSE [1]: 192.5 mg/dL | LACTATE DEHYDROGENASE [1]: 214.67 u/L | LIPASE [1]: 8.5 u/L | PHOSPHORUS [1]: 12.95 mg/dL | POTASSIUM [1]: 6.39 MEQ/L | SODIUM [1]: 142.38 MEQ/L | TOTAL BILIRUBIN [1]: 0.18 mg/dL | TOTAL PROTEIN [1]: 5.95 G/DL | URIC ACID [1]: 1.83 mg/dL | ABSOLUTE BASOPHIL [2]: 0 CELLS/uL | ABSOLUTE EOSINOPHIL [2]: 188.5 CELLS/uL | ABSOLUTE LYMPHOCYTE [2]: 12360.83 CELLS/uL | ABSOLUTE MONOCYTE [2]: 64.33 CELLS/uL | ABSOLUTE SEGMENTED NEUTROPHIL [2]: 1986.33 CELLS/uL | BASOPHIL [2]: 0% | EOSINOPHIL [2]: 1.33% | ERYTHROCYTE COUNT [2]: 5.52 x10E6/uL | HEMATOCRIT [2]: 35.82% | HEMOGLOBIN [2]: 13.25 G/DL | LEUKOCYTE COUNT [2]: 14.6 x10E3/uL | LYMPHOCYTE [2]: 84.5% | MEAN CORPUSCULAR HEMOGLOBIN [2]: 24.05 pg | MEAN CORPUSCULAR HEMOGLOBIN CONCENTRATION [2]: 36.98 G/DL | MEAN CORPUSCULAR VOLUME [2]: 64.97 fL | MONOCYTE [2]: 0.5% | NEUTROPHIL [2]: 13.67% | NUCLEATED RED BLOOD CELLS [2]: 0 /100WBC | PLATELET COUNT [2]: 1297.83 x10E3/uL | ALANINE AMINOTRANSFERASE [2]: 51.17 u/L | ALBUMIN [2]: 4.08 G/DL | ALKALINE PHOSPHATASE [2]: 393.17 u/L | ASPARTATE AMINOTRANSFERASE [2]: 111 u/L | BLOOD UREA NITROGEN [2]: 18.17 mg/dL | CARBON DIOXIDE [2]: 25 mmol/L | CHLORIDE [2]: 105.17 MEQ/L | CHOLESTEROL [2]: 65.5 mg/dL | CREATINE PHOSPHOKINASE [2]: 911.5 u/L | CREATININE [2]: 0.21 mg/dL | GLUCOSE [2]: 183 mg/dL | LACTATE DEHYDROGENASE [2]: 189 u/L | LIPASE [2]: 8.33 u/L | PHOSPHORUS [2]: 12.78 mg/dL | POTASSIUM [2]: 6.05 MEQ/L | SODIUM [2]: 144.57 MEQ/L | TOTAL BILIRUBIN [2]: 0.25 mg/dL | TOTAL PROTEIN [2]: 5.83 G/DL | URIC ACID [2]: 1.58 mg/dL | ABSOLUTE BASOPHIL [3]: 0 CELLS/uL | ABSOLUTE EOSINOPHIL [3]: 232.67 CELLS/uL | ABSOLUTE LYMPHOCYTE [3]: 11739.33 CELLS/uL | ABSOLUTE MONOCYTE [3]: 92.67 CELLS/uL | ABSOLUTE SEGMENTED NEUTROPHIL [3]: 1668.67 CELLS/uL | BASOPHIL [3]: 0% | EOSINOPHIL [3]: 1.67% | ERYTHROCYTE COUNT [3]: 5.23 x10E6/uL | HEMATOCRIT [3]: 33.7% | HEMOGLOBIN [3]: 12.47 G/DL | LEUKOCYTE COUNT [3]: 13.73 x10E3/uL | LYMPHOCYTE [3]: 85.67% | MEAN CORPUSCULAR HEMOGLOBIN [3]: 23.87 pg | MEAN CORPUSCULAR HEMOGLOBIN CONCENTRATION [3]: 36.97 G/DL | MEAN CORPUSCULAR VOLUME [3]: 64.5 fL | MONOCYTE [3]: 0.67% | NEUTROPHIL [3]: 12% | NUCLEATED RED BLOOD CELLS [3]: 0 /100WBC | PLATELET COUNT [3]: 1318 x10E3/uL | ALANINE AMINOTRANSFERASE [3]: 47 u/L | ALBUMIN [3]: 4.03 G/DL | ALKALINE PHOSPHATASE [3]: 451.67 u/L | ASPARTATE AMINOTRANSFERASE [3]: 88.67 u/L | BLOOD UREA NITROGEN [3]: 15 mg/dL | CARBON DIOXIDE [3]: 28 mmol/L | CHLORIDE [3]: 104.67 MEQ/L | CHOLESTEROL [3]: 64 mg/dL | CREATINE PHOSPHOKINASE [3]: 727.67 u/L | CREATININE [3]: 0.21 mg/dL | GLUCOSE [3]: 162.33 mg/dL | LACTATE DEHYDROGENASE [3]: 101 u/L | LIPASE [3]: 8.33 u/L | PHOSPHORUS [3]: 13 mg/dL | POTASSIUM [3]: 6.56 MEQ/L | SODIUM [3]: 146.33 MEQ/L | TOTAL BILIRUBIN [3]: 0.2 mg/dL | TOTAL PROTEIN [3]: 5.9 G/DL | URIC ACID [3]: 1.7 mg/dL

From ChEMBL document CHEMBL3885881, “DrugMatrix”
